Some test systems named below: NCI-H23 lung; KM12 colon; SK-MEL-5 melanoma; TK-10 renal; IGROV1 ovarian; EKVX NSCLC; DU-145 prostate; SF-539 CNS; MALME-3M melanoma; K-562 leukemia.
Common to all, as to experiment: DTP human tumour cell line panel, 48 h

The structures appear in SMILES notation. Several values for one entry are separate records, joined by “and”; a condition that tells them apart may be missing. Equal values may be shown once.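 96-well plates; 48 h exposure; 5 concentrations. Endpoints by linear interpolation between flanking doses. Not reached: highest tested concentration assigned. Here, GI50 denotes the concentration required for 50% inhibition of growth. At the TGI there is no net growth.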 Some results are limits rather than exact numbers.

In general, GI50 refers to the concentration at which growth is held to half of that of the control. The TGI is the concentration giving total growth inhibition. The low end stands for greater sensitivity of the cells, the high end for lower sensitivity of the cells. Turning to `CC(C)COC(=O)c1ccc2[nH]c(O)c(C=Nc3ccc(S(N)(=O)=O)cc3)c2c1`, the GI50 in the assay with NCI-H23 lung was 1.33 µM; in the assay with KM12 colon it was 1.06 µM; in the assay with SK-MEL-5 melanoma, 1.65 µM; in the assay with TK-10 renal, 1.65 µM; in the assay with IGROV1 ovarian it was 1.75 µM; in the assay on EKVX NSCLC it was 3.97 µM. Also, the GI50 with DU-145 prostate was 0.805 µM; with SF-539 CNS, 0.975 µM; in the assay on MALME-3M melanoma, 4.97 µM; with K-562 leukemia, 2.32 µM. Moreover, the TGI with NCI-H23 lung was determined as 5.11 µM; with KM12 colon, 3.87 µM; in the assay with SK-MEL-5 melanoma, 4.46 µM; in the assay with TK-10 renal, 4.52 µM; in the assay on IGROV1 ovarian, 8.01 µM; in the assay with EKVX NSCLC, 15.6 µM. In addition, the total growth inhibition concentration (TGI) in the assay on DU-145 prostate was determined as 3.8 µM; with SF-539 CNS it was 3.67 µM; in the assay with MALME-3M melanoma, 10.9 µM; with K-562 leukemia it was 17.1 µM.

For the compound `CCCNc1nc2ccccc2c2c1S(=O)(=O)c1ccc(Cl)cc1C2=O`, the GI50 was 1.66 µM with NCI-H23 lung; 1.49 µM in the assay with KM12 colon; 1.51 µM in the assay with SK-MEL-5 melanoma; 3.14 µM with TK-10 renal; 1.46 µM in the assay on IGROV1 ovarian; 1.38 µM in the assay on EKVX NSCLC. Besides, the GI50 was 1.57 µM with DU-145 prostate, 1.26 µM in the assay with SF-539 CNS, 1.46 µM with MALME-3M melanoma and 0.45 µM in the assay with K-562 leukemia. Moreover, the TGI in the assay on NCI-H23 lung, in the assay with KM12 colon, with SK-MEL-5 melanoma, with TK-10 renal, with IGROV1 ovarian and in the assay on EKVX NSCLC was over 50 µM each time. Also, the TGI in the assay with DU-145 prostate was over 50 µM; in the assay with SF-539 CNS it was 3.63 µM; in the assay with MALME-3M melanoma, over 50 µM; in the assay with K-562 leukemia, over 50 µM.

As for `C/C=C(\C)C(=O)N[C@H]1C(O)C[C@]2(C)C3CC[C@@]4(C)C(CC[C@@H]4C(C)N(C)C)C3CCC2C1O` (stereo not given in full), the GI50 was 13.1 µM with NCI-H23 lung; 6.85 µM with KM12 colon; 1.65 µM with SK-MEL-5 melanoma; 18.1 µM with TK-10 renal; 13.3 µM with IGROV1 ovarian; 9.38 µM in the assay with EKVX NSCLC. Also, the GI50 is 12.6 µM in the assay on DU-145 prostate, 1.61 µM in the assay with SF-539 CNS, 2.6 µM with MALME-3M melanoma and 1.9 µM with K-562 leukemia. In addition, the total growth inhibition concentration (TGI) is 49.7 µM with NCI-H23 lung; 25.8 µM in the assay with KM12 colon; 3.46 µM in the assay with SK-MEL-5 melanoma; 41.5 µM in the assay with TK-10 renal; over 43.7 µM in the assay with IGROV1 ovarian; over 50.9 µM with EKVX NSCLC. Moreover, the TGI was over 83.3 µM in the assay on DU-145 prostate, 3.46 µM with SF-539 CNS, 7.47 µM with MALME-3M melanoma and 8.34 µM in the assay on K-562 leukemia.

On to `[Cl][Cd][Cl]`, for which the GI50 with NCI-H23 lung was 3.08 µM and 25.4 µM and 2.68 µM; with KM12 colon it was 17.9 µM and 9.62 µM; with SK-MEL-5 melanoma, 1.18 µM and 3.62 µM and 0.518 µM; with TK-10 renal, 90.5 µM; in the assay on IGROV1 ovarian it was 4.32 µM and 29.7 µM and 8.4 µM; in the assay on EKVX NSCLC, 24.7 µM and 9.95 µM. Besides, the GI50 in the assay on DU-145 prostate was 24 µM; in the assay with SF-539 CNS, 4.51 µM and 19.5 µM and 18.9 µM; in the assay on MALME-3M melanoma it was 5.5 µM and > 34.7 µM and 3.68 µM; in the assay with K-562 leukemia, 2.01 µM and 20 µM and 14.8 µM. Further, the TGI with NCI-H23 lung is 58.1 µM and 10.8 µM; with KM12 colon it was 35.1 µM and 30.1 µM; in the assay on SK-MEL-5 melanoma it was 3.31 µM and 22.4 µM and 5.9 µM; in the assay on TK-10 renal, 192 µM; in the assay on IGROV1 ovarian it was > 60.6 µM and 16.1 µM; in the assay on EKVX NSCLC, 52 µM and 19.9 µM. For the same compound, the total growth inhibition concentration (TGI) with DU-145 prostate was 63.6 µM; in the assay with SF-539 CNS, 47.4 µM and 62.5 µM; in the assay with MALME-3M melanoma, > 49.4 µM and 9.41 µM; in the assay with K-562 leukemia, 51.3 µM and 147 µM.

Turning to `NCCSCCc1ccccc1`, the TGI in the assay on NCI-H23 lung, with KM12 colon, with SK-MEL-5 melanoma, in the assay with TK-10 renal, in the assay with IGROV1 ovarian and in the assay with EKVX NSCLC was over 100 µM each time. In addition, the TGI in the assay on DU-145 prostate, with SF-539 CNS, in the assay with MALME-3M melanoma and in the assay on K-562 leukemia was over 100 µM throughout.

Turning to `COc1ccc2nc(NC(=O)c3cccnc3Nc3cc(OC)c(OC)c(OC)c3)sc2c1`, the GI50 in the assay on NCI-H23 lung was 5.38 µM; in the assay on KM12 colon, 4.51 µM; in the assay with SK-MEL-5 melanoma it was 11.3 µM; in the assay on TK-10 renal, 4.31 µM; in the assay with IGROV1 ovarian it was 13.2 µM; in the assay on EKVX NSCLC, 11.5 µM. In addition, the GI50 is 14.6 µM with DU-145 prostate, 2.8 µM in the assay with SF-539 CNS, 10.1 µM with MALME-3M melanoma and 8.91 µM with K-562 leukemia. In addition, the total growth inhibition concentration (TGI) stood at 22.7 µM in the assay with NCI-H23 lung; 19 µM with KM12 colon; 47.7 µM with SK-MEL-5 melanoma; 14.1 µM in the assay with TK-10 renal; 28.5 µM in the assay on IGROV1 ovarian; 55.6 µM in the assay on EKVX NSCLC. For the same compound, the total growth inhibition concentration (TGI) is 33.8 µM with DU-145 prostate, 11.2 µM with SF-539 CNS, 24.6 µM in the assay on MALME-3M melanoma and over 100 µM in the assay on K-562 leukemia.

For `Cn1cnc([N+](=O)[O-])c1Sc1ncn[nH]1`, the GI50 in the assay on NCI-H23 lung was 99.5 µM; in the assay on KM12 colon, over 100 µM; with SK-MEL-5 melanoma, over 100 µM; in the assay on TK-10 renal, 98.2 µM; with IGROV1 ovarian it was 40.7 µM; in the assay on EKVX NSCLC, over 100 µM. Besides, the GI50 is 63.4 µM in the assay on DU-145 prostate, over 100 µM with SF-539 CNS, 23.9 µM in the assay with MALME-3M melanoma and 32.3 µM with K-562 leukemia. For the same compound, the TGI in the assay with NCI-H23 lung, with KM12 colon, in the assay with SK-MEL-5 melanoma, with TK-10 renal, in the assay with IGROV1 ovarian and in the assay on EKVX NSCLC was over 100 µM in each case. Also, the TGI with DU-145 prostate, in the assay on SF-539 CNS, in the assay with MALME-3M melanoma and in the assay on K-562 leukemia was over 100 µM each time.

As to `Cc1cccc2c(N)c3ccccc3nc12`, the GI50 was 1.81 µM with NCI-H23 lung; 1.78 µM in the assay on KM12 colon; 1.77 µM with SK-MEL-5 melanoma; 1.78 µM in the assay with TK-10 renal; 2.18 µM in the assay on IGROV1 ovarian; 2.76 µM in the assay with EKVX NSCLC. The GI50 was 1.53 µM in the assay with DU-145 prostate, 1.09 µM in the assay on SF-539 CNS, 1.39 µM with MALME-3M melanoma and 1.3 µM with K-562 leukemia. Further, the TGI in the assay on NCI-H23 lung is 7.49 µM; with KM12 colon, 12.2 µM; in the assay with SK-MEL-5 melanoma, 3.26 µM; with TK-10 renal, 8.27 µM; with IGROV1 ovarian it was 9.67 µM; with EKVX NSCLC, 9.99 µM. Further, the concentration for total growth inhibition (TGI) with DU-145 prostate was found to be 12.3 µM; in the assay on SF-539 CNS, 4.28 µM; in the assay on MALME-3M melanoma, 3.21 µM; with K-562 leukemia, 13.5 µM.

The values above are taken from PubChem BioAssay (NCI).
